Assay results: patent EP1650209A1, “Griseusin derivatives and their use as antitumor agents” (Oncotest GmbH, priority 2004, dated 2006)
Values after ≈ are worked out from the molar mass of the structure shown.

Key:
Assay type in all cases: cell-based, human
[1] = test system: H-460; assay: Proliferation inhibition of cancer cells (propidium iodide fluorescence); details: Lung, non small cell, H-460 cell line
Experimental: (§1) Using various human cancer cells in vitro, the concentrations of the test compounds (A, B, C, D, E, F), which inhibit the proliferation of cancer cells by 50% (IC50) and 70% (IC70) were determined. Specifically, each cell line of bladder cancer (BXF 1218L and T-24), glioblastoma (CNXF 498NL), colic cancer (HCT-116 and HT-29), gastric cancer (GXF 251 L), head and neck cancer (HNXF 536L), non small cell lung cancer (LXF 1121L, LXF 289L, LXF 526L, LXF 529L, LXF 629L and H-460), mammary cancer (MAXF 401NL, MCF-7, MDA-231 and MDA-468), melanoma (MEXF 276L, MEXF 394NL, MEXF 462NL, MEXF 514L and MEXF 520L), ovary cancer (OVXF 1619L, OVXF 899L and OVCAR-3), pancreatic cancer (PAXF 1657L and PANC-1), prostate cancer (22Rv1, DU-145, LNCaP and PC3M), pleuramesothelioma (PXF 1752L), renal cancer (RXF 1781 L, RXF 393NL, RXF 486L and RXF 944L), and uterine cancer (UXF 1138L) is added to a 96-well microtiter plate at a density of 3.6-11.2x10^3 cells per well in RPMI-1640 medium containing 10% fetal calf serum and 0.1% gentamicin and incubated for 24 hours. After 24 hours RPMI-1640 medium containing 10% fetal calf serum and 0.1% gentamicin, together with a test compound, is added thereto. Then, this plate is incubated at 37°C for 4 days in a humidified atmosphere of air containing 5% CO2. Thereafter, the cell culture medium with or without drug was replaced by 200 µl of an aqueous PI solution (7 µg/ml propidium iodide). Applying a freeze thaw cycle to permeabilize intact cell walls, staining of DNA was achieved, and the fluorescence of each well was measured using the Cy-tofluor 4000 microplate reader (excitation 530 nm, emission 620 nm), giving a direct relationship to the total cell number. Proliferation inhibition is expressed as test versus untreated control (T/C-value [%]). IC50 and IC70 values were determined by plotting compound concentration versus cell viability.

[2] = test system: HNXF 536L; assay: as above; details: Head and Neck, HNXF 536L cell line
Experimental: as §1

[3] = test system: LXFA 526L; assay: as above; details: Lung, non small cell, LXFA 526L cell line
Experimental: as §1

[4] = test system: MEXF 276L; assay: as above; details: Melanoma, MEXF 276L cell line
Experimental: as §1

[5] = test system: MEXF 462NL; assay: as above; details: MEXF 462NL cell line
Experimental: as §1

[6] = test system: MEXF 520L; assay: as above; details: Melanoma, MEXF 520L cell line
Experimental: as §1

[7] = test system: PANC-1; assay: as above; details: Pancreas, PANC-1 cell line
Experimental: as §1

[8] = test system: PAXF 1657L; assay: as above; details: Pancreas, PAXF 1657L cell line
Experimental: as §1

[9] = test system: RXF 1781 L; assay: as above; details: Kidney, RXF 1781 L cell line
Experimental: as §1

[10] = test system: RXF 486L; assay: as above; details: RXF 486L cell line
Experimental: as §1

[11] = test system: RXF 944L; assay: as above; details: Kidney, RXF 944L cell line
Experimental: as §1

[12] = test system: T-24; assay: as above; details: Bladder, T-24 cell line
Experimental: as §1

[13] = test system: UXF 1138L; assay: as above; details: UXF 1138L cell line
Experimental: as §1

[14] = test system: LXFS 538; assay: Clonogenic assay, colony formation of tumor stem cells from xenografts; details: Lung, small cell, xenograft LXFS 538, colony formation

Question: C[C@@H]1CC(=O)[C@@H](O)[C@]2(O1)O[C@@H]1CC(=O)O[C@@H]1C1=C2C(=O)c2c(O)cccc2C1=O [Compound B, 4'-dehydro-deacetylgriseusin A] was tested. Which IC50 [1] did it give?
Answer: The IC50 was 0.490 µg/mL (≈ 1.22 µM).

Question: And the IC70 [1]?
Answer: The IC70 was 1.042 µg/mL (≈ 2.6 µM).

Question: And the IC50 [2]?
Answer: The IC50 was 0.237 µg/mL (≈ 0.592 µM).

Question: What about the IC70 [2] of the same molecule?
Answer: Its IC70 is 0.716 µg/mL (≈ 1.79 µM).

Question: And the IC50 [3]?
Answer: The IC50 was 0.129 µg/mL (≈ 0.322 µM).

Question: What about the IC70 [3] of the same molecule?
Answer: Its IC70 is 0.206 µg/mL (≈ 0.515 µM).

Question: And the IC50 [4]?
Answer: The IC50 was 0.112 µg/mL (≈ 0.28 µM).

Question: And the IC70 [4]?
Answer: The IC70 was 0.212 µg/mL (≈ 0.53 µM).

Question: And the IC50 value ([5]; 4 days)?
Answer: Its IC50 value is 0.086 µg/mL (≈ 0.215 µM).

Question: What about the IC50 ([5]; Melanoma) of the same molecule?
Answer: The IC50 was 0.086 µg/mL (≈ 0.215 µM).

Question: And the IC70 ([5]; Melanoma)?
Answer: The IC70 was 0.158 µg/mL (≈ 0.395 µM).

Question: And the IC50 [6]?
Answer: Its IC50 is 0.102 µg/mL (≈ 0.255 µM).

Question: And the IC70 [6]?
Answer: Its IC70 is 0.175 µg/mL (≈ 0.437 µM).

Question: What about the IC50 [7] of the same molecule?
Answer: Its IC50 is 0.117 µg/mL (≈ 0.292 µM).

Question: What about the IC70 [7] of the same molecule?
Answer: The IC70 was 0.200 µg/mL (≈ 0.5 µM).

Question: And the IC50 [8]?
Answer: Its IC50 is 0.094 µg/mL (≈ 0.235 µM).

Question: And the IC70 [8]?
Answer: Its IC70 is 0.179 µg/mL (≈ 0.447 µM).

Question: What about the IC50 [9] of the same molecule?
Answer: The IC50 was 0.407 µg/mL (≈ 1.02 µM).

Question: What about the IC70 [9] of the same molecule?
Answer: Its IC70 is 1.134 µg/mL (≈ 2.83 µM).

Question: And the IC50 ([10]; Kidney)?
Answer: The IC50 was 0.078 µg/mL (≈ 0.195 µM).

Question: And the IC70 ([10]; Kidney)?
Answer: Its IC70 is 0.142 µg/mL (≈ 0.355 µM).

Question: What about the IC50 value ([10]; 4 days) of the same molecule?
Answer: Its IC50 value is 0.078 µg/mL (≈ 0.195 µM).

Question: What about the IC50 [11] of the same molecule?
Answer: The IC50 was 0.038 µg/mL (≈ 0.0949 µM).

Question: And the IC70 [11]?
Answer: Its IC70 is 0.107 µg/mL (≈ 0.267 µM).

Question: What about the IC50 [12] of the same molecule?
Answer: The IC50 was 0.507 µg/mL (≈ 1.27 µM).

Question: And the IC70 [12]?
Answer: The IC70 was 1.137 µg/mL (≈ 2.84 µM).

Question: And the IC50 value ([13]; 4 days)?
Answer: The IC50 value was 0.216 µg/mL (≈ 0.54 µM).

Question: What about the IC50 ([13]; Uterus) of the same molecule?
Answer: Its IC50 is 0.216 µg/mL (≈ 0.54 µM).

Question: What about the IC70 ([13]; Uterus) of the same molecule?
Answer: The IC70 was 0.524 µg/mL (≈ 1.31 µM).

Question: And the IC50 [14]?
Answer: The IC50 was 0.307 µg/mL (≈ 0.767 µM).

Question: And the IC70 [14]?
Answer: The IC70 was 0.502 µg/mL (≈ 1.25 µM).
